Measurements: ChEMBL document CHEMBL1201862, “PubChem BioAssay data set” (2004)
Calls of active or inactive are those of the source.

Key:
[1] = molecular target: Tumor necrosis factor (Homo sapiens, UniProt P01375); assay: analog potency on TNFa NF-kB signaling – cell-based, revised, SAR follow-up (AID 2337); type: functional
[2] = molecular target: T1, Nucleotide-binding oligomerization domain-containing protein 1 (Homo sapiens, UniProt Q9Y239); assay: blockers of NOD1 pathway activity – revised, SAR follow-up (AID 2333); type: functional
T1 sequence (Q9Y239 whole entry): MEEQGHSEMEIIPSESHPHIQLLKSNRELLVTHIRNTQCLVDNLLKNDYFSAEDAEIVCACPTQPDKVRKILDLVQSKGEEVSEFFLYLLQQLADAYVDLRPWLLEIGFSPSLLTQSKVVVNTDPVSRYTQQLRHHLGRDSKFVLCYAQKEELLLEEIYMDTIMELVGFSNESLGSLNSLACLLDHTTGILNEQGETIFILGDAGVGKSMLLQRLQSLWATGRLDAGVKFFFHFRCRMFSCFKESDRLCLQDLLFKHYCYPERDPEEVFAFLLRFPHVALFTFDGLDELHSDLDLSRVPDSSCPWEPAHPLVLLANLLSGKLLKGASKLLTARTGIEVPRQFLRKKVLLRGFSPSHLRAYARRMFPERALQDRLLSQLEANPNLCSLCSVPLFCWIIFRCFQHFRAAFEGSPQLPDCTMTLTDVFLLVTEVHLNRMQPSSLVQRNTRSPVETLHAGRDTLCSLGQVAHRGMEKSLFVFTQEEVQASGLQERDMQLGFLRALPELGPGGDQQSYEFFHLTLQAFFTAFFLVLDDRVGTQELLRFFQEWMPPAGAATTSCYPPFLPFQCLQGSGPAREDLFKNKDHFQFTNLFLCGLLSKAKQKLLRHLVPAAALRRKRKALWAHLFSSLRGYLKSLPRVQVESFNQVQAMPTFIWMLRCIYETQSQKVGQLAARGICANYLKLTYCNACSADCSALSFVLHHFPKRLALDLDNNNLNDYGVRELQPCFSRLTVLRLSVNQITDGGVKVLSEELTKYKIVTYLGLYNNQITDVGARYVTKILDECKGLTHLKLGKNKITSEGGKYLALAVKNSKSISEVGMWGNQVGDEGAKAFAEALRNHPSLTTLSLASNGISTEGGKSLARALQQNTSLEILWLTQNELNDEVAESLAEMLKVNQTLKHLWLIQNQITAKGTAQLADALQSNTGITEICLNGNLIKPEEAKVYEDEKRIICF

[3] = molecular target: Nucleotide-binding oligomerization domain-containing protein 2 (Homo sapiens, UniProt Q9HC29); assay: PubChem AID 2334; type: functional
[4] = test system: HEK293; assay: cells; settings: Homo sapiens;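 further: cells exposed to compound for 14 hours overnight before viability readout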
[5] = molecular target: Melanin-concentrating hormone receptor 1 (Homo sapiens, UniProt Q99705); assay: Late-stage fluorescence-based counterscreen for antagonists of the G-protein coupled receptor 7 (GPR7): cell-based dose response assay to identify antagonists of the melanin-concentrating hormone receptor 1 (MCHR1). [Related pubchem assays (depositor defined):AID1861, AID1880, AID1952, AID2148, AID2251, AID2257, AID485339]; type: functional;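 further: stimulated with 30 nM MCH peptide agonist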
[6] = molecular target: T2, Neuropeptides B/W receptor type 1 (Homo sapiens, UniProt P48145); assay: human NPBW1 receptor blockade, IC50 – cell-based, fluorescence, dose response, late-stage follow-up (AID 463251); type: functional
T2 sequence (P48145 whole entry): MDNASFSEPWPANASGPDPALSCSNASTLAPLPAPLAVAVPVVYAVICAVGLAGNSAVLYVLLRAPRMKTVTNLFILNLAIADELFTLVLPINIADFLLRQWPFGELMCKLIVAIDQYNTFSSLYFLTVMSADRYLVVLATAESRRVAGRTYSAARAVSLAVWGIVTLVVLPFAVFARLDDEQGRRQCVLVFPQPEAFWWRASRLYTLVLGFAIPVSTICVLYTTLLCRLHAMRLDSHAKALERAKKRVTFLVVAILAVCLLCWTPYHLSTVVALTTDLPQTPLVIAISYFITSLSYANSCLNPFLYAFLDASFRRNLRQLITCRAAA

[7] = molecular target: Bcl-2-like protein 10 (Homo sapiens, UniProt Q9HD36); assay: Bcl-B/TR3 peptide binding disruption – biochemical, fluorescence polarization, FITC-TR3 peptide, selectivity assay for Bfl-1 inhibitor project, primary screen (AID 748);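 further: fluorescence polarization from a fluorescein-labelled TR3 peptide binding purified Bcl-B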
Chain of Bcl-2-like protein 10 (Q9HD36 whole entry): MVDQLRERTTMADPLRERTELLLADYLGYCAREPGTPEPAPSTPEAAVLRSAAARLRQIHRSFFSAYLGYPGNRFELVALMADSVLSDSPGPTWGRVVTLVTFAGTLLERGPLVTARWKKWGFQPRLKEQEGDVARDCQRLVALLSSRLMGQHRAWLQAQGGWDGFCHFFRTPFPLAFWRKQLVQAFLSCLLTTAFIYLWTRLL

[8] = luciferase reporter signal suppression in cells – H4 neuroglioma cells, luminescence, dose response (AID 1990); type: functional, cell-based
[9] = Luminescence Cell-Based Dose Response HTS to Identify Inhibitors of 5'UTR Stem-Loop Driven Prion Protein mRNA Translation in H4 Neuroglioblastoma Cells. [Related pubchem assays: 1827 (Project Summary), 1813 (Primary HTS)]; type: functional
[10] = alpha-synuclein stem-loop luciferase translation blockers – H4 neuroglioma cells, luminescence, confirmation (AID 1988); type: functional, cell-based
[11] = molecular target: Voltage-dependent T-type calcium channel subunit alpha-1H (Homo sapiens, UniProt O95180); type: functional;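 further: channel activity triggered by adding a high calcium stimulation buffer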
Chain of Voltage-dependent T-type calcium channel subunit alpha-1H (O95180 whole entry): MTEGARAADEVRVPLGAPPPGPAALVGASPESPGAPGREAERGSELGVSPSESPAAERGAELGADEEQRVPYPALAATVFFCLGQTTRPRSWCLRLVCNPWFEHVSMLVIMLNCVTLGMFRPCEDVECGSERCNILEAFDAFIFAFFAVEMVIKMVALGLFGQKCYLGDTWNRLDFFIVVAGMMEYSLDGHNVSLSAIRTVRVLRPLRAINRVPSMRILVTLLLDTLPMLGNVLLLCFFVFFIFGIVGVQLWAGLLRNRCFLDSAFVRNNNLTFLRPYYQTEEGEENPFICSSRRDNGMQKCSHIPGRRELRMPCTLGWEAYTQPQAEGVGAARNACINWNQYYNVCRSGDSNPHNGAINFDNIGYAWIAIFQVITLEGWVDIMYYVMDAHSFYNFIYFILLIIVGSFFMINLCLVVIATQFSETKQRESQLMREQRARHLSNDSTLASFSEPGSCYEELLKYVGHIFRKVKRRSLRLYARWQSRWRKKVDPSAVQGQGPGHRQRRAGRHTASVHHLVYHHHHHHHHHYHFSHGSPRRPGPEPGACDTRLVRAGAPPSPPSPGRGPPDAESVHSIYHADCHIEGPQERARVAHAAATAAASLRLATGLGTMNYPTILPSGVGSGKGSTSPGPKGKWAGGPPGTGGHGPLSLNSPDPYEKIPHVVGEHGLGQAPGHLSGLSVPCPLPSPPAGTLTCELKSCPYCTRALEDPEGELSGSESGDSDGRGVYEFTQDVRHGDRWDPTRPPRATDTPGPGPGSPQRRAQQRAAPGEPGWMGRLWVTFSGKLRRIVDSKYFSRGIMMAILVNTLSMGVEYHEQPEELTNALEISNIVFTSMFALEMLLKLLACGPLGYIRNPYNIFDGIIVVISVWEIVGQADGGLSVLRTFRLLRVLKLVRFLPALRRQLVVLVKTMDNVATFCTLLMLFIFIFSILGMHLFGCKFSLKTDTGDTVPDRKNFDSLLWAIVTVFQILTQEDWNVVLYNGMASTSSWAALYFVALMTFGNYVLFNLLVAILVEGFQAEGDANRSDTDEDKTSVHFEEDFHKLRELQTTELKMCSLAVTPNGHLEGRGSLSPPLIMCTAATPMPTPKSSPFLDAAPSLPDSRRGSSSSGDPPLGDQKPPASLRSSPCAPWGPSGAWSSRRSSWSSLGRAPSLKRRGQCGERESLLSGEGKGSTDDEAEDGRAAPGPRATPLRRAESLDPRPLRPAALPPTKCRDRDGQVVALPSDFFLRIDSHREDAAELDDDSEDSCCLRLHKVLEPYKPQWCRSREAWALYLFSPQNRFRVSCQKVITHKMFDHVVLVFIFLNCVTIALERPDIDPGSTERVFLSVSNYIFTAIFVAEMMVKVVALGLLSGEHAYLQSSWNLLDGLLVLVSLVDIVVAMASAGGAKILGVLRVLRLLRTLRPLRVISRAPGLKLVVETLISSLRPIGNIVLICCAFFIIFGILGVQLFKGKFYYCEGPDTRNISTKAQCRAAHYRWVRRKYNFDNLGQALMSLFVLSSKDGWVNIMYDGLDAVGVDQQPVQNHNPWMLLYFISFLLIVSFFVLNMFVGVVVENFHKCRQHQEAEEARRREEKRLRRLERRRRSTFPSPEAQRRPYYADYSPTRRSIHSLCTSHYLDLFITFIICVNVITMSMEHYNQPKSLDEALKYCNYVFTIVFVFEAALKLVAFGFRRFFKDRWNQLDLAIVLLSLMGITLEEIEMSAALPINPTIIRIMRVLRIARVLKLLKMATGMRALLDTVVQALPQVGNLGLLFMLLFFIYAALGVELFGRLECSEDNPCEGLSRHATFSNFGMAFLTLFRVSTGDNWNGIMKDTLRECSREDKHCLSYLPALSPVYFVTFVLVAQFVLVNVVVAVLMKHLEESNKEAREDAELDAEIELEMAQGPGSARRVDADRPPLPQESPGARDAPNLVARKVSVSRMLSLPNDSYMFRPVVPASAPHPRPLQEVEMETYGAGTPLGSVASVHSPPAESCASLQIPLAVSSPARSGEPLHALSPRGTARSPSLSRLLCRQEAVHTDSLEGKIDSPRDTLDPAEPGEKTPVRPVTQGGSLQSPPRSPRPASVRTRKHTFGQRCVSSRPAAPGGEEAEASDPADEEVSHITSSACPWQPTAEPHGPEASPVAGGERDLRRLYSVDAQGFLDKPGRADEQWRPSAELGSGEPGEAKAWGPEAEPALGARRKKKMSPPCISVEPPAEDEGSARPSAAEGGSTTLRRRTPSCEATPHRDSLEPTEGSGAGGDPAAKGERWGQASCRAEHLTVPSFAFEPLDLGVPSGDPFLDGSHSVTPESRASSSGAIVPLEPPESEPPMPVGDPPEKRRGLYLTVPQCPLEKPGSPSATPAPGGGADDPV

[12] = molecular target: G-protein coupled receptor 35 (Homo sapiens, UniProt Q9HC97); assay: inhibition of zaprinast-stimulated GPR35 beta-arrestin translocation – imaging, U2OS, beta-arrestin-GFP, zaprinast agonist, primary screen (AID 2058); type: functional;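 further: antagonist potency meaning inhibition of agonist-induced arrestin redistribution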
Chain of G-protein coupled receptor 35 (Q9HC97 whole entry): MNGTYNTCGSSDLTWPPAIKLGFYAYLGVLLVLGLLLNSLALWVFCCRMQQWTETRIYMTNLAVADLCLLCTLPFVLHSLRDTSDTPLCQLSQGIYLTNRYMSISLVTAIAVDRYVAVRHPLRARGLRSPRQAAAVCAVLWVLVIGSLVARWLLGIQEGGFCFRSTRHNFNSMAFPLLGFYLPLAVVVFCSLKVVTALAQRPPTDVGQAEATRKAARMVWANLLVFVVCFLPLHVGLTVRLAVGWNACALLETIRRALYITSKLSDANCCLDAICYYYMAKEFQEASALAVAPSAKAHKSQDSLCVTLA

[13] = molecular target: DNA dC->dU-editing enzyme APOBEC-3G (Homo sapiens, UniProt Q9HC16); assay: Dose Response confirmation of small molecule APOBEC3G DNA Deaminase Inhibitors via a fluorescence-based single-stranded DNA deaminase assay. [Related pubchem assays (depositor defined):AID493012, AID493028]; type: functional
[14] = molecular target: T3, Polyadenylate-binding protein 1 (Homo sapiens, UniProt P11940); assay: MLLE binding blockers, Cy5 peptide tracer – biochemical, fluorescence polarization, Cy5-PAM2 peptide, secondary, miRNA deadenylation inhibitor project, dose response (AID 602260); type: functional; settings: read-out: IC50_Mean
T3 sequence (P11940 whole entry, the tested form may be a part): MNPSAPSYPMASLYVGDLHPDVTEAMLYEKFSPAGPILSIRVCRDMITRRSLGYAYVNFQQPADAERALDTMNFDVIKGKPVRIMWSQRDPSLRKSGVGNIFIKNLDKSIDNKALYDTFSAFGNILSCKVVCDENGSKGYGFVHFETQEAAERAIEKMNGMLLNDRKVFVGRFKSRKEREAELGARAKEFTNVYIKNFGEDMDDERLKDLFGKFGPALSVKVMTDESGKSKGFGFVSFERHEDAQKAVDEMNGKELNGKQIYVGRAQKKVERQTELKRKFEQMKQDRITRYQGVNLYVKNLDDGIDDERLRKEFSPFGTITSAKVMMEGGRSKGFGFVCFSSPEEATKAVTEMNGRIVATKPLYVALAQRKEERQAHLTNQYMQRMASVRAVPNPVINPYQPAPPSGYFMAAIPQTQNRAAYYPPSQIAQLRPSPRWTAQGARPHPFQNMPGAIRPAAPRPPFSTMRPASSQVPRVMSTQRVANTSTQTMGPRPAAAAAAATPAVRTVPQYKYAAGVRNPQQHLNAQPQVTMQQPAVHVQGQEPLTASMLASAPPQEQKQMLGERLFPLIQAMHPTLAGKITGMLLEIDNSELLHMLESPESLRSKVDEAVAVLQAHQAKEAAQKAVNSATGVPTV

[15] = molecular target: T3, Polyadenylate-binding protein 1; assay: MLLE domain peptide-binding blockers, IC50 – biochemical, fluorescence polarization, FITC-PAM2 peptide, dose response (AID 602259); type: functional; settings: read-out: IC50_Mean
[16] = molecular target: T4, Caspase-3 (Homo sapiens, UniProt P42574); assay: activation of caspase-3 zymogen – biochemical, absorbance, dose response (AID 489014)
T4 sequence (P42574 whole entry): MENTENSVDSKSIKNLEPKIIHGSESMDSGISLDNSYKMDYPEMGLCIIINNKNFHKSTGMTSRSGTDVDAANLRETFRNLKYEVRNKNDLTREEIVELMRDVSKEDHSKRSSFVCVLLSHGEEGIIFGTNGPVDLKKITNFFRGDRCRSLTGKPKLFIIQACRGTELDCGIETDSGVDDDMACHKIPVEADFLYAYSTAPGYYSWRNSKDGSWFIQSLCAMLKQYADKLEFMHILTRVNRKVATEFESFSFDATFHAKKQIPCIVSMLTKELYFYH

[17] = molecular target: Caspase-7 (Homo sapiens, UniProt P55210); assay: activation of caspase-7 zymogen – biochemical, absorbance, counter-screen for procaspase-3 activator project, dose response (AID 489013)
Chain of Caspase-7 (P55210 24-198 limits assumed): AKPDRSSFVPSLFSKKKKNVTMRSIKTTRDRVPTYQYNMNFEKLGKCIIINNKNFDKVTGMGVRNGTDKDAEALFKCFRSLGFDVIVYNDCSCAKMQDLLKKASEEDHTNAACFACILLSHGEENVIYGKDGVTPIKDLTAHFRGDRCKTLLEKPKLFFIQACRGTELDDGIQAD
Chain of Caspase-7 (P55210 207-303 limits assumed): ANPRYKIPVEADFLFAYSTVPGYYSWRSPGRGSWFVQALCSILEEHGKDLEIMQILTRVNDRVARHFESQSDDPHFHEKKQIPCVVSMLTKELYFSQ

[18] = molecular target: X-box-binding protein 1 (Homo sapiens, UniProt P17861); type: functional, Cricetulus griseus;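 further: confirmatory dose-response counter-screen serving a CHOP assay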
Chain of X-box-binding protein 1 (P17861 whole entry): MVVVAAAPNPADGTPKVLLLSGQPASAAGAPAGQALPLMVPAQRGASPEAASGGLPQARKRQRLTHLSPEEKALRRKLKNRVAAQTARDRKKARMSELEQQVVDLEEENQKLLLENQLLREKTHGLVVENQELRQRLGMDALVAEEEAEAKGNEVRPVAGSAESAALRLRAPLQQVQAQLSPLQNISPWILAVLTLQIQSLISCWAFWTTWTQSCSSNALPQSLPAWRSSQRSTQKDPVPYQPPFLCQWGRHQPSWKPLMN

[19] = molecular target: Beta-2 adrenergic receptor (Homo sapiens, UniProt P07550); assay: ADRB2 activation measured by internalization – cell-based, FAP fluorogen, flow cytometry, cherry pick 1, dose response (AID 588763); type: functional
Chain of Beta-2 adrenergic receptor (P07550 whole entry): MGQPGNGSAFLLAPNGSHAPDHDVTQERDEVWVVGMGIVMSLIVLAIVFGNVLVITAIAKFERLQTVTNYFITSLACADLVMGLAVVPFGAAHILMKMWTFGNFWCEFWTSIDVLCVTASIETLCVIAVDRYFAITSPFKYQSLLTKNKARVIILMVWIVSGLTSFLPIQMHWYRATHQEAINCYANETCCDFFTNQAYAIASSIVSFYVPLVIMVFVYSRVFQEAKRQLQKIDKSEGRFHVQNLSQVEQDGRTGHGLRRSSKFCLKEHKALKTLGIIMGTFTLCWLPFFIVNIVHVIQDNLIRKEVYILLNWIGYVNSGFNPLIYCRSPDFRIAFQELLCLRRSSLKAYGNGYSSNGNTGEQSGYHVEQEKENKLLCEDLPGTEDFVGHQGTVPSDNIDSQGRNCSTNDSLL

[20] = molecular target: Aryl hydrocarbon receptor (Homo sapiens, UniProt P35869); assay: Luminescence-based cell-based high throughput dose response assay for activators of the Aryl Hydrocarbon Receptor (AHR). [Related pubchem assays: 2796 (Primary screen (AHR activators in singlicate)), 2845 (Confirmation screen (AHR activators in triplicate)), 434939 (Counterscreen (PXR activators in triplicate)), 2804 (Summary (AHR activators))]; type: ADME
[21] = molecular target: Eukaryotic translation initiation factor 4E (Mus musculus, UniProt P63073); assay: blockers of eIF4G binding by eIF4E – biochemical, TR-FRET, dose response (AID 855); type: functional;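 further: potency for disrupting eIF4E binding to eIF4GI seen as loss of FRET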
Chain of Eukaryotic translation initiation factor 4E (P63073 whole entry): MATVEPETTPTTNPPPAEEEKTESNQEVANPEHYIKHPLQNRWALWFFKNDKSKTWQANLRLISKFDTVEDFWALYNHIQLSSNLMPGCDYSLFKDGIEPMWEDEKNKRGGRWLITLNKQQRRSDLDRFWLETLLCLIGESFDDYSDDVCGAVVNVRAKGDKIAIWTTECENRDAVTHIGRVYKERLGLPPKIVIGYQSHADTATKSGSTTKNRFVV

Chain of Tumor necrosis factor (P01375 whole entry, the tested form may be a part): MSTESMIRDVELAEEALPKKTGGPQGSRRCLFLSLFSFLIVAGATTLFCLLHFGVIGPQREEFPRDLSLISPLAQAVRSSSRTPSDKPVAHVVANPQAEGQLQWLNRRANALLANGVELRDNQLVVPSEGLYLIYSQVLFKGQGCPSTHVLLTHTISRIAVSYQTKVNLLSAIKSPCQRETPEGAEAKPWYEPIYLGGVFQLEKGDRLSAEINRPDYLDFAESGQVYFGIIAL

Cc1ccc(O)c(N=Cc2cc(Cc3ccccc3)cc([N+](=O)[O-])c2O)c1
IC50 [1]: > 20 µM (inactive) | IC50 [2]: > 20 µM (inactive) | IC50 [3]: > 20 µM (inactive) | IC50 [4]: > 20 µM (inactive)

COc1cc(F)ccc1Oc1c(Cl)cnn(-c2ccc(C)cc2)c1=O
IC50 [5]: 9.5 µM (active) | IC50 [6]: 9.7 µM (active)

Cc1ccc(NC(=O)Nc2cccs2)c(Cl)c1
IC50 [7]: > 100 µM (inactive)

CCc1nnc(NC(=O)CSc2nnc(C3CCCCC3)n2-c2cccc(Cl)c2)s1
EC50 [8]: > 120 µM (not active) | EC50 [9]: > 120 µM (not active) | EC50 [10]: > 120 µM (not active) | EC50 [11]: 7.01 µM (active)

CN1C=CC2=C(C#N)C(N)C(C#N)(C#N)C(c3ccccc3)C2C1 (stereo not drawn)
IC50 [12]: 1.01 µM (active)

O=C(Nc1ccc(N2CCOCC2)c(S(=O)(=O)Nc2ccc(Cl)cc2)c1)c1cnccn1
IC50 [13]: 51.6 µM (active) | IC50 [14]: > 66 µM (inactive) | IC50 [15]: > 66 µM (inactive)

Cc1cc(C)c(NC(=O)c2cc3c(nc4sccn43)s2)c(C)c1
IC50 [7]: > 100 µM (inactive)

Cc1ccc(-c2cc(C(F)(F)F)c(C#N)c(SCCC#N)n2)o1
EC50 [16]: > 85.2 µM (inactive) | EC50 [17]: > 85.2 µM (inactive)

CCN(CCO)c1ncnc2c1sc1nc(CC(C)C)c3c(c12)CC(C)(C)OC3
Absolute IC50 (XBP1) [18]: 10 µM | EC50 [19]: 0.0454 µM (active)

CCOc1ccc(COc2c(Cl)cnn(-c3ccc(C)cc3)c2=O)cc1OCC
IC50 [6]: > 20 µM (inactive)

O=C(N/N=C/c1c[nH]c2ccccc12)C1COc2ccccc2O1 (stereo not drawn)
EC50 [20]: 5.67 µM (active) | IC50 [21]: > 64 µM (inactive)
